Measurements reported in US4267187A, “Aminopropanol derivatives of 2-(0-hydroxyphenyl)-pyrrole” (BASF Aktiengesellschaft, priority 1978, dated 1981).
Structures can show the parent of a compound that is named as a salt.

Assays:
[1] = system: isoproterenol-induced tachycardia; experiment: β1-sympatholytic action: inhibition of isoproterenol-induced tachycardia in pithed rats; type: in vivo, pithed rats (Sprague-Dawley, Rattus norvegicus); conditions: for β1-sympatholytic action, R.A. (relative activity): Propranolol = 1.00, from ED 50%, intravenous; for β1-sympatholytic activity, times greater than that of propranolol: versus propranolol
Method: The β-sympatholytic action was tested on rats, in comparison with the known β-sympatholytic agent propanolol (1-(isopropylamino)-1-naphthyloxy-2-propanol.HCl). The following methods were used for this purpose:
1. β1 -sympatholytic action
^1 Inhibition of isoproterenolinduced tachycardia in pithed rats.
Intravenous administration
^2 Dose which inhibits the isoproterenolinduced tachycardia by 50%

[2] = for Therapeutic range, relative: in vivo; for Therapeutic range (LD 50/ED 50%), times greater than that of propranolol: versus propranolol
NMRI mice = experiment: Acute toxicity in mice, intraperitoneal; conditions: deaths within 24 hours, Probit analysis
Method: The acute toxicity was determined on groups of 10 female NMRI mice, weight 19-27 g, with intraperitoneal administration.
Intraperitoneal administration

## CC(C)NCC(O)COc1cccc2ccccc12 (racemic) [Propranolol, 1-(isopropylamino)-1-naphthyloxy-2-propanol.HCl, reference compound]
[1]; pithed rats
  β1-sympatholytic action, R.A. (relative activity): 1.00
[1]; Rattus norvegicus, iv, 5 min, read-out: β1-sympatholytic action, ED 50% (dose which inhibits the isoproterenol-induced tachycardia by 50%)
  ED50: 0.0127 mg/kg

## CC(C)(C)NCC(O)COc1ccccc1-c1ccc[nH]1 (stereo not drawn) [Example 1, 2-[2-(3-tert.-butylamino-2-hydroxypropoxy)-phenyl]-pyrrole fumarate]
[2]
  Therapeutic range, relative: 6.91
  Therapeutic range (LD 50/ED 50%), times greater than that of propranolol: 7 times
NMRI mice
  Acute toxicity LD 50: 165
[1]; pithed rats
  β1-sympatholytic action, R.A. (relative activity): 5.59
[1]
  β1-sympatholytic activity, times greater than that of propranolol: 5.6 times

## CC(C)NCC(O)COc1ccccc1-c1ccc[nH]1 (stereo not drawn) [Example 2, 2-[2-(3-isopropylamino-2-hydroxypropoxy)-phenyl]-pyrrole fumarate hemihydrate]
[2]
  Therapeutic range, relative: 4.07
  Therapeutic range (LD 50/ED 50%), times greater than that of propranolol: 4 times
[1]; pithed rats
  β1-sympatholytic action, R.A. (relative activity): 3.18
[1]
  β1-sympatholytic activity, times greater than that of propranolol: 3.2 times

## CC(C)NCC(O)c1ccc(O)c(O)c1 (stereo not drawn) [Isoproterenol, reference compound]
[1]; isoproterenol 0.1 μg/kg intravenously, pithed rats
  increase in pulse rate, on average: 45%
